Legend:
[1] = system: Staphylococcus aureus ACTT 6538; test: in vitro MBC (minimum bactericidal concentration) study of PS:TU ratios in SST medium; format: cell-based
Experimental: The range of the ratios of the components of the synergistic antimicrobial compositions of the present invention was obtained by an in vitro MBC (minimum bactericidal concentration) study. The study was conducted in SST medium inoculated with about 10^6 CFU/ml Staphylococcus aureus ACTT 6538. In vitro efficacy was evaluated for different ratios of PS and TU combinations along with the stand alone (i.e., individual) compositions at the same concentrations as in the combination composition. After incubation at 37° C. for 24 hours, viable bacteria populations were measured by plate count. Log reduction (LR) was used as the end point for efficacy and was defined as Log CFU/ml of untreated control−Log CFU/ml of treated. The synergistic index (SI) was defined as the LR of a given combination−sum of LR of single component at the same concentration as in the combination. An SI=0 indicated additive effect, SI=1, indicated 90% more bacterial cedality, SI=2 indicated 99% more bacterial cedality, SI=3, indicated 99.9% more bacterial cedality, etc., by a combination than its stand alone components at the same usage, thus synergy.

[2] = system: Escherichia coli ATCC 25922; test: in vitro bacteria attachment assay on coated mesh discs in SST medium; format: cell-based; details: treated mesh surface, serum containing media
Experimental: Taurolidine was dissolved at 4% wt./vol. in a 70% acetone 30% water vol./vol. mixture. Protamine sulfate was dissolved at 10% wt./vol. in water under warming. 50 μl of the taurolidine (TU) solution and 20 μl of the protamine (PS) solution were applied to each mesh disk using a pipette and allowed to dry at 50° C. until the majority of the liquid was gone and then stored under vacuum. First the taurolidine solution was applied, and then immediately thereafter the protamine sulfate solution was applied. The in vitro bacteria attachment assay was developed for its utility of indicating biofilm prevention potential of prototype mesh. Since bacterial attachment to a surface is the first step of biofilm formation, a surface treatment that inhibits bacterial attachment would reduce the chance of subsequent biofilm formation. The assay was conducted in SST (Serum Saline TSB) medium to mimic in vivo and clinical conditions. The formulation of SST is Tryptic Soy Broth (TSB):serum:saline in the ratio of 1:2:7. Each test article was incubated in SST inoculated with Staphylococcus aureus ACTT 6538 or Escherichia coli ATCC 25922 at about 6 Log CFU/ml. […] Viable bacteria populations were measured by plate count on TSA (Tryptic Soy agar) medium contain neutralizing agents. […]

S. aureus ACTT 6538 = test: bactericidal two-dimensional concentration matrix of TU and PS in SST medium, plate count; format: cell-based, Staphylococcus aureus; details: TU alone at 100 ppm, 37° C. 24 hours
Experimental: Concentration gradients of TU and PS were diluted in an SST medium and made into a two-dimensional matrix. Bacteria of interest were inoculated to the matrix at about 10e6 CFU/ml. S. aureus ACTT 6538 or E. coli ATCC 25922 were used for this Example 2. After incubation at 37° C. for 24 hours, viable bacteria populations were measured by plate count. Log reduction (LR) was used as the end point for efficacy and was defined as: Log CFU/ml of untreated control−Log CFU/ml of treated. Synergistic index (SI) was defined as LR of a given combination−sum of LR of single component at the same concentration as in the combination. SI=0 indicated additive effect, SI=1, indicated 90% more bacterial cedality, SI=2 indicated 99% more bacterial cedality, SI=3, indicated 99.9% more bacterial cedality, etc., by combination than its stand alone compositions at the same usage, thus synergy.

[3] = cited from earlier work
[4] = system: Staphylococcus aureus ACTT 6538; test: in vitro bacteria attachment assay on coated mesh discs in SST medium; format: cell-based; details: for Log reduction: 4 hours SST 37° C.
Experimental: Taurolidine was dissolved at 4% wt./vol. in a 70% acetone 30% water vol./vol. mixture. Protamine sulfate was dissolved at 10% wt./vol. in water under warming. 50 μl of the taurolidine (TU) solution and 20 μl of the protamine (PS) solution were applied to each mesh disk using a pipette and allowed to dry at 50° C. until the majority of the liquid was gone and then stored under vacuum. First the taurolidine solution was applied, and then immediately thereafter the protamine sulfate solution was applied. The in vitro bacteria attachment assay was developed for its utility of indicating biofilm prevention potential of prototype mesh. Since bacterial attachment to a surface is the first step of biofilm formation, a surface treatment that inhibits bacterial attachment would reduce the chance of subsequent biofilm formation. The assay was conducted in SST (Serum Saline TSB) medium to mimic in vivo and clinical conditions. The formulation of SST is Tryptic Soy Broth (TSB):serum:saline in the ratio of 1:2:7. Each test article was incubated in SST inoculated with Staphylococcus aureus ACTT 6538 or Escherichia coli ATCC 25922 at about 6 Log CFU/ml. After incubation with rotation of 60 rpm for 4 hours at 37° C., the mesh discs were washed in saline 3 times to remove unattached bacteria. Bacteria attached to the mesh were collected by sonication in saline with neutralizing agent. Viable bacteria populations were measured by plate count on TSA (Tryptic Soy agar) medium contain neutralizing agents. The use of neutralizing agents in bacteria suspension and plate count medium was to eliminate any carry over antimicrobial effect from the coating. The plates were incubated at 37° C. for 24 hours. The number of attached viable bacteria was reported as CFU/disc. In accordance with Example 1, surgical mesh discs coated with different stand alone and combinations of taurolidine+protamine sulfate were prepared. Protocols of mesh coating and in vitro attachment assay as in Example 1 were used for this Example 3.

## O=S1(=O)CCN(CN2CCS(=O)(=O)NC2)CN1 [TU, bis(1,1-dioxoperhydro-1,2,4-thiadiazinyl-4)-methane]
[1]; TU alone at same concentration as in PS:TU 1:1
  LR-TU: 0
[1]; TU alone at same concentration as in PS:TU 1:10
  LR-TU: 0
[1]; TU alone at same concentration as in PS:TU 1:50
  LR-TU: 0
[1]; TU alone at same concentration as in PS:TU 1:100
  LR-TU: 0
[1]; TU alone at same concentration as in PS:TU 1:200
  LR-TU: 0
[1]; TU alone at same concentration as in PS:TU 10:1
  LR-TU: 0
[1]; TU alone at same concentration as in PS:TU 50:1
  LR-TU: 0
[2]
  inhibition of attachment by E. coli (in words): less inhibition than the combination
S. aureus ACTT 6538
  Log reduction (LR): 0
[3]; cumulative doses
  safe and well tolerated cumulative dose: exceeding 300 g
[3]; systemic doses
  safe and well tolerated systemic dose: exceeding 40 g/day
[4]; TU 500 μg/disc alone
  Log reduction: 1
[4]; TU 1000 μg/disc alone
  Log reduction: 0.8
[4]; TU 2000 μg/disc alone
  Log reduction: 2
[4]; treated mesh surface, serum containing media
  inhibition of attachment by S. aureus (in words): less inhibition than the combination

Source: patent publication US9220814B2, “Broad-spectrum antimicrobial compositions based on combinations of taurolidine and protamine and medical devices containing such compositions” (Ethicon, Inc., priority 2011, dated 2015)
